Several values for one entry are separate records, joined by “and”; a condition that tells them apart may be missing. Identical values can stand only once.
What was measured:
PC3 (prostate cell line) = experiment: MTT cytotoxicity assay, PC3; assay type: cell-based; details: Homo sapiens, 100 μg ml^−1, 48 hours, MTT, read-out: (%) Mortality PC3
Experimental: (§1) Using specific human cancer cell lines, the anti-proliferative effectiveness of compounds 7a–j was evaluated in an in vitro assay. The anti-cancer activity of these compounds (7a–j) on various cancer cell lines, including PC3 (Prostate cell line), A549 (Lung carcinoma), PACA2 (Pancreatic cancer cell line) and BJ1 (normal skin fibroblast), was investigated in this study using the 3-(4,5-dimethylthiazol-2-yl)-2,5-diphenyltetrazolium bromide (MTT) test. Doxorubicin (Dox) was the standard medication used as a positive control.
(§2) All incubations were performed at 37 °C in a 5% CO2 incubator with a 95% humidified environment (Sheldon, TC2323; Cornelius, OR, USA). 96-well micro titer polypropylene plates were seeded with cells at a density of 10^4 cells per well in complete DMEM media, and the cells were allowed to adhere for 24 hours. After the media was aspirated, the tested compounds were added to the cells in a single dose of 100 μg ml^−1 in DMSO. Each well received 40 μl of MTT salt (2.5 g ml^−1) following a 48 hour incubation period. 200 μl of 10% sodium dodecyl sulfate (SDS) was added to each well after the reaction ended, and any formazan crystals that could have been produced were dissolved by two hours of incubator heating to 37 °C. The amount of formazan product was measured at 595 nm using a microplate reader (Bio-Rad Laboratories, model 3350, California, USA) with a reference wavelength of 690 nm, serving as a backdrop. Rather than the drugs under investigation, the medium was applied to the untreated cells (negative control). The examined compounds were dissolved in dimethylsulfoxide (DMSO), and the final concentration in the cells was less than 0.2%. For each compound and the control, the solvent concentration was the same.

A549 (lung carcinoma) = experiment: MTT cytotoxicity assay, A549; assay type: cell-based; details: Homo sapiens, A549, MTT; for cytotoxicity at 100 µg/mL: 100 μg ml^−1, 48 hours, read-out: (%) Mortality A549
Experimental: as §1, §2

[1] = tested on: PACA2 (pancreatic cancer cell line); experiment: MTT cytotoxicity assay, PACA2; assay type: cell-based; details: Homo sapiens, PaCa-2; 100 μg ml^−1, 48 hours, MTT; read-out: (%) Mortality PACA2
Experimental: as §1, §2

[2] = tested on: BJ1 (normal skin fibroblast); details: 100 μg ml^−1, 48 hours, MTT
Experimental: Using specific human cancer cell lines, the anti-proliferative effectiveness of compounds 7a–j was evaluated in an in vitro assay. The anti-cancer activity of these compounds (7a–j) on various cancer cell lines, including PC3 (Prostate cell line), A549 (Lung carcinoma), PACA2 (Pancreatic cancer cell line) and BJ1 (normal skin fibroblast), was investigated in this study using the 3-(4,5-dimethylthiazol-2-yl)-2,5-diphenyltetrazolium bromide (MTT) test.
In the initial screening trial, a single dosage concentration of 100 μg ml^−1 was applied for 48 hours. The cytotoxicity of the treated cells was determined by calculating the cell death percentage (% mortality) as a percentage of untreated cells (Table 2).
Cell viability was tested using the MTT assay, 3-(4,5-dimethylthiazol-2-yl)-2,5-diphenyl-tetrazolium bromide (Bio Basic Canada Inc. Toronto, Canada).[26] Under class II biosafety regulations, the procedures were carried out in a sterile laminar air flow cabinet (Baker, SG403INT; Sanford, ME, USA). Cell lines were obtained from the American type culture collection (ATCC) as a gift from Dr Stig Linder, Karonisca Institute, Sweden. All incubations were performed at 37 °C in a 5% CO2 incubator with a 95% humidified environment (Sheldon, TC2323; Cornelius, OR, USA). 96-well micro titer polypropylene plates were seeded with cells at a density of 10^4 cells per well in complete DMEM media, and the cells were allowed to adhere for 24 hours. After the media was aspirated, the tested compounds were added to the cells in a single dose of 100 μg ml^−1 in DMSO. Each well received 40 μl of MTT salt ([…]) following a 48 hour incubation period. 200 μl of 10% sodium dodecyl sulfate (SDS) was added to each well after the reaction ended, and any formazan crystals that could have been produced were dissolved by two hours of incubator heating to 37 °C. The amount of formazan product was measured at 595 nm using a microplate reader (Bio-Rad Laboratories, model 3350, California, USA) with a reference wavelength of 690 nm, serving as a backdrop. Rather than the drugs under investigation, the medium was applied to the untreated cells (negative control). The examined compounds were dissolved in dimethylsulfoxide (DMSO), and the final concentration in the cells was less than 0.2%. For each compound and the control, the solvent concentration was the same.

Structure (SMILES)	cytotoxicity at 100 µg/mL (PC3 (prostate cell line)) [%]	cytotoxicity at 100 µg/mL (A549 (lung carcinoma)) [%]	cytotoxicity at 100 µg/mL [1] [%]	(%) Mortality BJ1 (cytotoxicity percentage on normal cells) [2]	IC50 (A549 (lung carcinoma); 48 hour incubation) [µM]
Cc1nn2c(-c3cccs3)nn(-c3ccc([N+](=O)[O-])cc3)c2nc1=O [Compound 7j, 6-Methyl-1-(4-nitrophenyl)-3-(thiophen-2-yl)-[1,2,4]triazolo[4,3-b][1,2,4]triazin-7(1H)-one]	15.9 ± 0.51	32.8 ± 0.54	7.2 ± 0.88	3.8 ± 0.77%	–
Cc1ccc(-c2nn(-c3ccccc3)c3nc(=O)c(C)nn23)cc1 [Compound 7f, 6-Methyl-1-phenyl-3-(p-tolyl)-[1,2,4]triazolo[4,3-b][1,2,4]triazin-7(1H)-one]	33.4 ± 1.18	69.1 ± 0.77	5.6 ± 0.11	3.2% and 3.2 ± 0.63%	–
CCc1nn(-c2ccc([N+](=O)[O-])cc2)c2nc(=O)c(C)nn12 [Compound 7b, 3-Ethyl-6-methyl-1-(4-nitrophenyl)-[1,2,4]triazolo[4,3-b][1,2,4]triazin-7(1H)-one]	24.5 ± 0.57	35.2 ± 1.22	3.6 ± 0.21	4.2 ± 0.98%	–
CCCc1nn(-c2ccc([N+](=O)[O-])cc2)c2nc(=O)c(C)nn12 [Compound 7c, 6-Methyl-1-(4-nitrophenyl)-3-propyl-[1,2,4]triazolo[4,3-b][1,2,4]triazin-7(1H)-one]	27.3 ± 1.2	22.9 ± 0.81	10.5 ± 0.61	1.6 ± 0.38%	–
Cc1nn2c(-c3ccc(Cl)cc3)nn(-c3ccccc3)c2nc1=O [Compound 7h, 3-(4-Chlorophenyl)-6-methyl-1-phenyl-[1,2,4]triazolo[4,3-b][1,2,4]triazin-7(1H)-one]	24.2 ± 0.21	13.5 ± 0.33	21.3 ± 0.98	9.6 ± 0.93%	–
Cc1nn2c(C(C)C)nn(-c3ccc([N+](=O)[O-])cc3)c2nc1=O [Compound 7d, 3-Isopropyl-6-methyl-1-(4-nitrophenyl)-[1,2,4]triazolo[4,3-b][1,2,4]triazin-7(1H)-one]	17.9 ± 0.38	33.3 ± 0.22	11.5 ± 0.25	36.2 ± 1.11%	–
Cc1nn2c(CC(C)C)nn(-c3ccc([N+](=O)[O-])cc3)c2nc1=O [Compound 7e, 3-Isobutyl-6-methyl-1-(4-nitrophenyl)-[1,2,4]triazolo[4,3-b][1,2,4]triazin-7(1H)-one]	35.1 ± 1.11	86.3 ± 0.74	8.6 ± 0.33	6.4% and 6.4 ± 0.85%	42.5
Cc1nn2c(-c3ccco3)nn(-c3ccc([N+](=O)[O-])cc3)c2nc1=O [Compound 7i, 3-(Furan-2-yl)-6-methyl-1-(4-nitrophenyl)-[1,2,4]triazolo[4,3-b][1,2,4]triazin-7(1H)-one]	18.4 ± 1.14	14.2 ± 0.24	9.6 ± 1.33	2.9 ± 1.22%	–
